According to US20100273189A1, “NON SEPARATION ASSAYS WITH SELECTIVE SIGNAL INHIBITORS” (BECKMAN COULTER, INC., priority 2009, published 2010):

Test system: PSA
Assay: Screening SSIA by homogeneous PSA immunoassay
Type: biochemical
Details: PSA 129 ng/mL (S5) vs zero
Protocol: This example presents one method used for testing of candidate compounds for functionality as SSIA in assays of the present disclosure. Testing was conducted in a model screening immunoassay of the protein PSA. Mouse anti-PSA tests were run using a 96-well microtiter plate format. […] The plate was incubated at 37° C. for 10 minutes. A 5 μL aliquot of the test compound (various concentrations) was added to each well. Chemiluminescence was triggered by the addition of 100 μL of a solution of trigger solution A. The chemiluminescent flash was integrated for 5 seconds after the addition of the trigger solution using a Luminoskan Asent® plate luminometer, (Thermo Fischer Scientific, Inc., Waltham, Mass.).
It is desirable that the improvement factor be at least 2 (S5/S0≧ about 20-30) and more desirable that improvement factor be at least 5 (S5/S0≧ about 50), yet more desirable that S5/S0 be ≧100 in the present screen.

[1] = test compound final conc. 0.122 mM
[2] = test compound final conc. 0.244 mM

| SMILES | S5/S0 [1] | further results |
| --- | --- | --- |
| Cc1cc(CO)c(O)c(CO)c1 | 23 |  |
| COc1cc(C(C)(C)C)c(O)c(C(C)(C)C)c1 | 19 |  |
| Cc1ccc(O)c(O)c1 | 142 |  |
| O=C(O)c1ccc(O)c(O)c1 | 178 |  |
| Oc1cccc(O)c1O | 69 |  |
| O=C(O)c1cc(O)c(O)c(O)c1 | 135 |  |
| COc1ccccc1O | 13 |  |
| Oc1ccc([C@@H]2Oc3cc(O)c(O)cc3C[C@@H]2O)cc1O | 323 |  |
| O=c1cc(O)c2ccccc2o1 | 17 |  |
| O=c1ccc2cc(O)c(O)cc2o1 | 105 |  |
| O=c1c(O)c(-c2ccccc2)oc2ccccc12 | 13 |  |
| O=c1c(O)c(-c2ccccc2)oc2cc(O)ccc12 | 14 |  |
| O=c1c(O)c(-c2ccccc2)oc2ccc(O)cc12 | 9 |  |
| Nc1c(O)cc(S(=O)(=O)O)c2ccccc12 | 65 |  |
| Oc1c(F)c(F)c(O)c(F)c1F |  | S5/S0 (test compound final conc. 0.014 mM): 50 |
| Nc1cc(Cl)ccc1O |  | S5/S0 [2]: 205 |

| SMILES | S5/S0 [1] | further results |
| --- | --- | --- |
| Nc1ccc(O)cc1O |  | S5/S0 (test compound final conc. 0.030 mM): 161 |
| O=C(O)c1cc(O)c2ccccc2n1 | 6 |  |
| c1ccc2c(c1)Cc1ccccc1O2 | 4 |  |
| O=c1c2ccccc2[nH]c2ccccc12 | 14 |  |
| O=S(=O)([O-])CCCN1c2ccccc2Sc2ccccc21.[Na+] |  | S5/S0 [2]: 50 |
| O=C1C(O)=C(O)C(=O)C(O)=C1O |  | S5/S0 (test compound final conc. 0.061 mM): 51 |
| O=C1C(O)=C(Cl)C(=O)C(O)=C1Cl |  | S5/S0 (test compound final conc. 0.031 mM): 7 |
| Nc1ccccc1B(O)O | 108 |  |
| C=CCc1ccc(O)c(OC)c1 |  | S5/S0 [2]: 30 |
| O=S(=O)([O-])CCCOCCCN1c2ccccc2Cc2ccccc21.[Na+] |  | S5/S0 [2]: 6 |
| Nc1c(O)ccc2ccccc12 | 63 |  |
| O=C(O)/C=C/c1ccc(O)c(O)c1 | 116 |  |
| NCCNC(=O)c1ccc(NN)cc1 |  | S5/S0 (test compound final conc. 1.22 mM): 138 |
| CC1(C)OC(=O)C(O)=C1O | 467 |  |
| CC1=C(O)C(=O)C(C)O1 (stereo not shown) |  | S5/S0 (test compound final conc. 1.25 mM): 237 |
